Laboratory results taken from patent US20190105367A1, “ANTIMICROBIAL 4-OXOQUINOLIZINES” (Emergent Product Development Gaithersburg Inc., priority 2011, published 2019).
Values after ≈ are worked out from the molar mass of the structure shown. Where two headings read alike, the source gives them in different places.

Legend:
[1] = system: A. baumannii NCTC 13301; experiment: MIC without and with sub-inhibitory polymyxin B (Example 4); format: cell-based, Acinetobacter baumannii
[2] = system: A. baumannii A473; experiment: as above; format: cell-based, Acinetobacter baumannii; conditions: A. baumannii A473; +0.06 μg/ml PB; 2nd experiment
[3] = system: A. baumannii ATCC 19606; experiment: as above; format: cell-based, Acinetobacter baumannii; conditions: A. baumannii ATCC 19606
[4] = system: A. baumannii A390; experiment: as above; format: cell-based, Acinetobacter baumannii; conditions: A. baumannii A390; +0.06 μg/ml PB; 2nd experiment
[5] = system: A. baumannii A472; experiment: as above; format: cell-based, Acinetobacter baumannii; conditions: for MIC: Acinetobacter baumannii
[6] = system: A. baumannii A14; experiment: as above; format: cell-based, Acinetobacter baumannii; conditions: 1st experiment
[7] = system: A. baumannii A472; experiment: Preliminary MBC without and with sub-inhibitory polymyxin B (Example 4); format: cell-based, Acinetobacter baumannii; conditions: Acinetobacter baumannii, A472, A. baumannii A472; +[…] PB; preliminary MBC; 2nd experiment; read-out: MBC
[8] = system: A. baumannii A401; experiment: MIC without and with sub-inhibitory polymyxin B (Example 4); format: cell-based, Acinetobacter baumannii; conditions: A baumannii A 401; ratio, PB 0.06 μg/ml; 1st experiment
[9] = system: strains of A. baumannii and one strain of Acinetobacter sp.; experiment: MIC with sub-inhibitory concentrations (0.25x MIC) of polymyxin B, panel of Acinetobacter strains (Example 4); format: cell-based
[10] = system: A. baumannii J2; experiment: MIC without and with sub-inhibitory polymyxin B (Example 4); format: cell-based, Acinetobacter baumannii; conditions: for MIC without PB/MIC + PB: A. baumannii J2; for MIC: Acinetobacter baumannii
[11] = system: A. baumannii A387; experiment: as above; format: cell-based, Acinetobacter baumannii; conditions: A. baumannii A387
[12] = system: A. baumannii A489; experiment: as above; format: cell-based, Acinetobacter baumannii; conditions: for MIC without PB/MIC + PB: A. baumannii A489; for MIC: Acinetobacter baumannii
[13] = system: A. baumannii A401; experiment: Preliminary MBC without and with sub-inhibitory polymyxin B (Example 4); format: cell-based, Acinetobacter baumannii; conditions: Acinetobacter baumannii, A401, A baumannii A 401, +0.06 μg/ml PB, 2nd experiment, read-out: MBC
[14] = system: A. baumannii A387; experiment: as above; format: cell-based, Acinetobacter baumannii; conditions: Acinetobacter baumannii, A387, A. baumannii A387, +0.06 μg/ml PB, 2nd experiment, read-out: MBC
[15] = system: A. baumannii NCTC 13301; experiment: as above; format: cell-based, Acinetobacter baumannii; conditions: Acinetobacter baumannii, NCTC13301, A. baumannii NCTC 13301; +[…] PB; preliminary MBC; 2nd experiment; read-out: MBC
Method: (§1) The plates were incubated for 18-20 hours at 37° C. The MBC was read as the lowest concentration at which colony growth was ca. 90% less than the positive control (i.e. usually where single colonies or no colonies were observed).

[16] = system: A. baumannii A14; experiment: as above; format: cell-based, Acinetobacter baumannii; conditions: A. baumannii A14, +0.06 μg/ml PB, 2nd experiment
Method: as §1

[17] = system: Acinetobacter sp. (H064200250); experiment: MIC without and with sub-inhibitory polymyxin B (Example 4); format: cell-based
[18] = system: A. baumannii NCTC 13301; experiment: as above; format: cell-based, Acinetobacter baumannii; conditions: +[…] PB, 2nd experiment
[19] = system: A. baumannii A329; experiment: as above; format: cell-based, Acinetobacter baumannii; conditions: A. baumannii A329; +0.06 μg/ml PB; 2nd experiment
[20] = system: A. baumannii A14; experiment: as above; format: cell-based, Acinetobacter baumannii; conditions: A. baumannii A14; +0.06 μg/ml PB; 2nd experiment
[21] = system: A. baumannii A14; experiment: Preliminary MBC without and with sub-inhibitory polymyxin B (Example 4); format: cell-based, Acinetobacter baumannii; conditions: A. baumannii A14; +0.06 μg/ml polymyxin B; preliminary MBC; 1st experiment
[22] = ratio, PB 0.06 μg/ml, 1st experiment

C[C@H]1COc2c(N3CCN(C)CC3)c(F)cc3c(=O)c(C(=O)O)cn1c23 [Levofloxacin, reference compound]
MIC without PB/MIC + PB ([1]; A. baumannii NCTC 13301, ratio, PB […], 1st experiment): 2
MIC ([1]; Acinetobacter baumannii, NCTC13301, read-out: MIC +[…] PB): 16 µg/mL (≈ 44.3 µM)
MIC without PB/MIC + PB [2]: 1
MIC without PB/MIC + PB ([3]; +0.06 μg/ml PB, 2nd experiment): 1
MIC without PB/MIC + PB [3, 22]: 1
MIC without PB/MIC + PB [4]: 2
MIC without PB/MIC + PB ([5]; A. baumannii A472, ratio, PB […], 1st experiment): 4
MIC ([5]; A472, A. baumannii A472, +[…] PB, 2nd experiment, read-out: MIC): 4 µg/mL (≈ 11.1 µM)
MIC ([5]; A472, read-out: MIC +[…] PB, A. baumannii A472, +[…] polymyxin B, 1st experiment): 4 µg/mL (≈ 11.1 µM)
MIC +0.06 μg/ml PB ([6]; +0.06 μg/ml polymyxin B): 32 µg/mL
MIC without PB/MIC + PB ([6]; ratio, PB 0.06 μg/ml): 1
MBC [7]: 4 µg/mL (≈ 11.1 µM)
MIC without PB/MIC + PB [8]: 1
Range ratios MIC without PB/MIC with PB Oct. 1, 2008 n = 8 ([9]; 1st experiment): 1-4
MIC range with PB (0.25x MIC) Oct. 1, 2008 n = 8 ([9]; 1st experiment, […] polymyxin B, ATCC 19606, A329, A390 and A473 not taken): 4 to 32 µg/mL
Range ratios MIC without PB/MIC with PB Oct. 14, 2008 n = 11 ([9]; 2nd experiment): 0.5-8
MIC range with PB (0.25x MIC) Oct. 14, 2008 n = 11 ([9]; 2nd experiment, 0.06 μg/ml polymyxin B, all strains except the ATCC strain): 4 to 32 µg/mL
MIC without PB/MIC + PB ([10]; +[…] PB, 2nd experiment): 8
MIC without PB/MIC + PB ([10]; ratio, PB […], 1st experiment): 4
MIC ([10]; J2, A. baumannii J2, +[…] PB, 2nd experiment, read-out: MIC): 4 µg/mL (≈ 11.1 µM)
MIC ([10]; J2, read-out: MIC +[…] PB, A. baumannii J2, +[…] polymyxin B, 1st experiment): 8 µg/mL (≈ 22.1 µM)
MIC without PB/MIC + PB ([11]; +0.06 μg/ml PB, 2nd experiment): 1
MIC without PB/MIC + PB [11, 22]: 1
MIC without PB/MIC + PB ([12]; +[…] PB, 2nd experiment): 4
MIC without PB/MIC + PB ([12]; ratio, PB […], 1st experiment): 2
MIC ([12]; A489, A. baumannii A489, +[…] PB, 2nd experiment, read-out: MIC): 8 µg/mL (≈ 22.1 µM)
MIC ([12]; A489, read-out: MIC +[…] PB, A. baumannii A489, +[…] polymyxin B, 1st experiment): 8 µg/mL (≈ 22.1 µM)
MBC [13]: 8 µg/mL (≈ 22.1 µM)
MBC [14]: 4 µg/mL (≈ 11.1 µM)
MBC [15]: 4 µg/mL (≈ 11.1 µM)
MBC [16]: 16.00 µg/mL (≈ 44.3 µM)
MIC without PB/MIC + PB ([17]; Acinetobacter spp. H064200250 (OXA51), +[…] PB, 2nd experiment): 2
MIC without PB/MIC + PB ([17]; Acinetobacter spp. H064200250, ratio, PB […], 1st experiment): 1
MIC ([17]; Acinetobacter, Acinetobacter spp. H064200250 (OXA51), +[…] PB, 2nd experiment, read-out: MIC): 8 µg/mL (≈ 22.1 µM)
MIC without PB/MIC + PB ([18]; A. baumannii NCTC 13301): 4
MIC ([18]; Acinetobacter baumannii, NCTC13301, A. baumannii NCTC 13301, read-out: MIC): 8 µg/mL (≈ 22.1 µM)
MIC without PB/MIC + PB [19]: 0.5
MIC [20]: 16.00 µg/mL (≈ 44.3 µM)
MIC without PB/MIC + PB [20]: 2
MBC +0.06 μg/ml PB [21]: 32 µg/mL
